Experimental data: ChEMBL document CHEMBL1201862, “PubChem BioAssay data set” (2004)
The source made the active and inactive calls.

Key:
[1] = molecular target: T1, High affinity choline transporter 1 (Homo sapiens, UniProt Q9GZV3); assay: human choline transporter blockers, potency – cell-based, 5-point CRC, membrane potential dye, dose response (AID 504840); format: functional
T1 sequence (Q9GZV3 whole entry): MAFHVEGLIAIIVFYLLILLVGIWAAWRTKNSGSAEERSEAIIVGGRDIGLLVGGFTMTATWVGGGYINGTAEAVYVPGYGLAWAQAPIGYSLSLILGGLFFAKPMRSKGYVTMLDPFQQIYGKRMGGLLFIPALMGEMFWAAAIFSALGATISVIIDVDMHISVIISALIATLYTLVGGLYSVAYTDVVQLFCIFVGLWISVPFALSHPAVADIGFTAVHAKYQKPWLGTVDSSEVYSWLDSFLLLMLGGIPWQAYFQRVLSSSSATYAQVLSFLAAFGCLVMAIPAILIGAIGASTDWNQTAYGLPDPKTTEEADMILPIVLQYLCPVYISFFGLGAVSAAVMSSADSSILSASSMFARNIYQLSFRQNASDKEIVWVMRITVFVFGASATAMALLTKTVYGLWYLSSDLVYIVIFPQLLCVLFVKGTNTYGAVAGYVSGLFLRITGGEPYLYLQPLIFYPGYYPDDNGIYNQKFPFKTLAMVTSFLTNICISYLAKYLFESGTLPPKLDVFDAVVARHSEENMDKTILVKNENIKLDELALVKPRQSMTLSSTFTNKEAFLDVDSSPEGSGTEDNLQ

[2] = molecular target: T1, High affinity choline transporter 1; assay: human choline transporter blockers, potency – cell-based, 10-point CRC, membrane potential dye, dose response (AID 588401); format: functional;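 also: membrane potential dye fluorescence of choline-evoked depolarization via CHT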
[3] = test system: Streptococcus sp. 'group A'; assay: Streptococcus pyogenes SK(-)GAS viability under kanamycin – luminescence, BacTiterGlo, confirmation, counter-screen for streptokinase expression inhibitor project, dose response (AID 1900); format: functional, organism-based
Streptokinase A = molecular target: T2, Streptokinase A (Streptococcus pyogenes serotype M1, UniProt P10520); assay: viability-normalized secreted streptokinase activity reduction – plasminogen activation absorbance, OD405, dose response (AID 1914); format: functional, Streptococcus pyogenes M1 GAS;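 also: secreted streptokinase activity via plasminogen activation per viability signal from cell pellet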
T2 sequence (P10520 whole entry): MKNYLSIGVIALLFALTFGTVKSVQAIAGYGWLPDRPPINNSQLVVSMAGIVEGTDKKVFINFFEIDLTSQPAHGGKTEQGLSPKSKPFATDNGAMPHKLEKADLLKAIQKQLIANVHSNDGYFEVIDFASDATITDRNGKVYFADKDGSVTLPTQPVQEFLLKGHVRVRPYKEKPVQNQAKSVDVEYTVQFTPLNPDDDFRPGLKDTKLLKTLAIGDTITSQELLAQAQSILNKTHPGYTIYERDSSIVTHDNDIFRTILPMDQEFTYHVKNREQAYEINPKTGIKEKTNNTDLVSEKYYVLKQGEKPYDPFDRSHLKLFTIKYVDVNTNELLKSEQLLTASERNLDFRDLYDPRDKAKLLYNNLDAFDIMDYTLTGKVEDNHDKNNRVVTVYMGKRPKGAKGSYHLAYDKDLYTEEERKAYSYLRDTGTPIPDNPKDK

[4] = microbe, parasite or virus in culture; format: functional; conditions: Mycobacterium tuberculosis
[5] = Luminescence Cell-Based Dose Confirmation HTS to Identify Inhibitors of Polyadenylation.; format: functional
Streptococcus = assay: GAS UMAA2166 growth inhibition – luminescence, BacTiterGlo, counter-screen for streptokinase expression inhibitor project, dose response (AID 1915); format: functional, organism-based;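 also: potency for reduction of bacterial viability or growth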
[6] = molecular target: Multidrug resistance protein CDR1 (Candida albicans, UniProt P43071); assay: inhibition of Nile Red efflux via Candida CDR1 – S. cerevisiae AD1-8u, singleplex, Cherry Pick1 hits, dose response (AID 588606); format: functional
[7] = molecular target: Multidrug resistance protein CDR2 (Candida albicans (strain SC5314 / ATCC MYA-2876) (Yeast), UniProt P78595); assay: inhibition of Nile Red efflux via Candida CDR2 – S. cerevisiae AD1-8u, singleplex, Cherry Pick1 hits, dose response (AID 588604); format: functional
Chain of Multidrug resistance protein CDR2 (P78595 whole entry): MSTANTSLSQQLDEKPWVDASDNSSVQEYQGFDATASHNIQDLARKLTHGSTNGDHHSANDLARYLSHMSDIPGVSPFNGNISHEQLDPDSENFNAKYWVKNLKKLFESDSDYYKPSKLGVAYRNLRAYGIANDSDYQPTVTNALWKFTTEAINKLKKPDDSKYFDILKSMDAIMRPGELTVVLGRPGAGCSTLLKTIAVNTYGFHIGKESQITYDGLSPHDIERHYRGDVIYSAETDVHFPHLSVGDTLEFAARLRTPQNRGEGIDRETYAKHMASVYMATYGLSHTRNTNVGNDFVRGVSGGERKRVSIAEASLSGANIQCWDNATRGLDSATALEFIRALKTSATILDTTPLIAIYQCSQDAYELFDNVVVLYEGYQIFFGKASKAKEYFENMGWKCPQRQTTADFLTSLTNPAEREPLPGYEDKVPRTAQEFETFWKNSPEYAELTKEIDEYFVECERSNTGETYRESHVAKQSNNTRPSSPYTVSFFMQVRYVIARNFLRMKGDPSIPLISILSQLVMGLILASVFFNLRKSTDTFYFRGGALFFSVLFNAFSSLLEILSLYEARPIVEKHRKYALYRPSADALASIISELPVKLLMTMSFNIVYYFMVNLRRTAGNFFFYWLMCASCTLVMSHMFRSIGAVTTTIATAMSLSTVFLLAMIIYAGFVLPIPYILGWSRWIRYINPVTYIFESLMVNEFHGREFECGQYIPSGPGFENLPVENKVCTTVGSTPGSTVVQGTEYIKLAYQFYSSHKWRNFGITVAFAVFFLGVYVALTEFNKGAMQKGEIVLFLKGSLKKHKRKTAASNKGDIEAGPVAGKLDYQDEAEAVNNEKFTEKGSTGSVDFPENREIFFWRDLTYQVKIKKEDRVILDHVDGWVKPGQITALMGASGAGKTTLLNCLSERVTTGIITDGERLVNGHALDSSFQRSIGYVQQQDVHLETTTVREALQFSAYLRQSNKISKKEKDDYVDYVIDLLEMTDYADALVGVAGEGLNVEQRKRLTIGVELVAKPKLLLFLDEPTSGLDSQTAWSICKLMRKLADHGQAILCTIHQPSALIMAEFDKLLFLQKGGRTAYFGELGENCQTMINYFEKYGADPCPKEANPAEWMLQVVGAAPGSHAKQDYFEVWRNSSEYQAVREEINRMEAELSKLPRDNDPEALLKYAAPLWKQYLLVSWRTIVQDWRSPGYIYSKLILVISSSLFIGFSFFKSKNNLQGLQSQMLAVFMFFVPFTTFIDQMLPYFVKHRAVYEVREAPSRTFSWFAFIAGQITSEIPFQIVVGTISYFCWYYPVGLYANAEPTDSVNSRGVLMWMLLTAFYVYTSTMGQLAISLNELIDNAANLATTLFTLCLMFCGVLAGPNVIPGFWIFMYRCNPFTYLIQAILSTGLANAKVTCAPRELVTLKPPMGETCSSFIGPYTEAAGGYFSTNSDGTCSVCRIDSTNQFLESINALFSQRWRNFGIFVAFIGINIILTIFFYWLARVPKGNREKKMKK

Chain of Multidrug resistance protein CDR1 (P43071 whole entry, looked up): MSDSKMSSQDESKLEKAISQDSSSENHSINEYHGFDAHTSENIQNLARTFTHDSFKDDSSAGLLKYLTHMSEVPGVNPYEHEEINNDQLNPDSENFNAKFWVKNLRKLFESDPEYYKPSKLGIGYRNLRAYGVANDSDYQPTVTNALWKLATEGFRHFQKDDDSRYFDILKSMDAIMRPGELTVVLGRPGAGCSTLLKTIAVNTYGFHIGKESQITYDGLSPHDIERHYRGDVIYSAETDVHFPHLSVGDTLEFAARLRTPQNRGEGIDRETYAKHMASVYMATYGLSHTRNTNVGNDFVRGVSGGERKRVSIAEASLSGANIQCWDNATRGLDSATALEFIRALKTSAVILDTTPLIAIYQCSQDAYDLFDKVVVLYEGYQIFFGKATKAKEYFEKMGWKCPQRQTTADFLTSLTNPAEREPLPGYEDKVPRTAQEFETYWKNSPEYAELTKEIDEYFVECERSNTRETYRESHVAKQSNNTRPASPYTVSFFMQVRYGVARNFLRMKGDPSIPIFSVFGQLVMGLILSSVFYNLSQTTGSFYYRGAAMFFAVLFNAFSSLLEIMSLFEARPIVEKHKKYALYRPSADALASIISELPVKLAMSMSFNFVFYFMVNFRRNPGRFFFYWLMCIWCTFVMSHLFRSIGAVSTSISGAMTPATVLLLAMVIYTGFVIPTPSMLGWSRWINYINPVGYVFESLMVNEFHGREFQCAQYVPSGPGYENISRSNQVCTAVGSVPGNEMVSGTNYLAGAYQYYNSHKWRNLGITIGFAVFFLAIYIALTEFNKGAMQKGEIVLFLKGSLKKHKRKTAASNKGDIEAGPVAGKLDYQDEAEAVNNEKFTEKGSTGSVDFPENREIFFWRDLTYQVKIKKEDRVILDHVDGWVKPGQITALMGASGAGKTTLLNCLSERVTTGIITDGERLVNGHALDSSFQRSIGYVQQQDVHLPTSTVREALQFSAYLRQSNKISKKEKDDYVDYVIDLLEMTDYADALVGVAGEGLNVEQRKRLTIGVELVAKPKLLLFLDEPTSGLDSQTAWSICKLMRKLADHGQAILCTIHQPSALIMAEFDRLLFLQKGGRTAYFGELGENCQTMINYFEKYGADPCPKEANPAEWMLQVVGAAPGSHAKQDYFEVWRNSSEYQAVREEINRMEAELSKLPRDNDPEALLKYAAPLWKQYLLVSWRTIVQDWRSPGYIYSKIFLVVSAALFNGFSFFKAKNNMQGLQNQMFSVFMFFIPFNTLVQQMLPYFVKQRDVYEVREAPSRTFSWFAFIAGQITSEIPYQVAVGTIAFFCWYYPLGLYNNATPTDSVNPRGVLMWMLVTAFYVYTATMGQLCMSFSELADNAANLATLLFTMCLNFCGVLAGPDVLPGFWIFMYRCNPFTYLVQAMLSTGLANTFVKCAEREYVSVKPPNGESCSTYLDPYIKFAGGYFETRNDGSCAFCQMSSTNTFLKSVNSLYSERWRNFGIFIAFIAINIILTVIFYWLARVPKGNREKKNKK

Cc1nn2c(N3CCN(CCO)CC3)c3c(nc2c1-c1ccccc1)CCCC3
IC50 [1]: 6.95 µM (active) | IC50 [2]: 4.74 µM (active)

CCc1ccc(NC2=NC(=O)/C(=C/c3cc(OC)c(O)c(OC)c3)S2)cc1
EC50 [3]: 2.67 µM (active) | EC50 (Streptokinase A): > 150 µM (not active) | CC50 [4]: > 40 µM (active) | EC50 [5]: 10.5 µM (active) | EC50 (Streptococcus): 28.2 µM (active) | EC50 [6]: 6.05 µM (active) | EC50 [7]: 19.2 µM (active)
